Test results: patent publication US9458201B2, “Melanocortin receptor-specific heptapeptides” (Palatin Technologies, Inc., priority 2009, dated 2016)
Peptide text beside a SMILES is read from it.

Legend:
[1] = Rat feeding study: food intake and body weight change; type: in vivo; details: for effect on food intake and rate of change in body weight: rat feeding studies, 0.3 and 1 mg/kg, bremelanotide as positive control; for decrease in food consumption compared to control: rat
Description: Change in food intake and body weight was evaluated for selected peptides administered by intravenous (IV) or subcutaneous injection routes. Male Sprague-Dawley rats were obtained from Hilltop Lab Animals, Inc. (Scottsdale, Pa.) or other vendors. Animals were individually housed in conventional polystyrene hanging cages and maintained on a controlled 12 hour on/off light cycle. Water and pelleted food was provided ad libitum. The rats were dosed IV with vehicle or selected peptides (0.3 to 1.0 mg/kg), or dosed subcutaneously with vehicle or selected peptides (doses up to 30 mg/kg). The changes in body weight and food intake for the 24 hour period after dosing was determined. The changes in body weight and food intake for the 48 hour and 72 hour periods after dosing can also be measured to determine reversal of changes in body weight and food intake effects back to baseline levels.

hMC4-R [2] = target: T1, hMC4-R (Homo sapiens (Human), UniProt P32245); test: Assay for agonist activity (cAMP accumulation, HEK-293 cells expressing hMC4-R); details: agonist = intrinsic activity 70% or higher; partial agonist 10-70%
T1 sequence (P32245 whole entry): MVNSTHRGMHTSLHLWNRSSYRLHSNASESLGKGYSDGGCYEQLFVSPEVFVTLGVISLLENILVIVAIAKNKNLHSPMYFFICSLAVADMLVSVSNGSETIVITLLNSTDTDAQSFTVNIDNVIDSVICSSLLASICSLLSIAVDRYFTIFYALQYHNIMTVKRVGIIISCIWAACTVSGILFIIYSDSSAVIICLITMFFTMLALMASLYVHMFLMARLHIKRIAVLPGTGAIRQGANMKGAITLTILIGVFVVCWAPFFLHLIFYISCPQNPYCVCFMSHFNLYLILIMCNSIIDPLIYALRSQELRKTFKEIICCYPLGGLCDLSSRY
Description: By “intrinsic activity” is meant the maximal functional activity achievable by a compound in a specified melanocortin receptor expressing cell system, such as the maximal stimulation of adenylyl cyclase.
Accumulation of intracellular cAMP was examined as a measure of the ability of the peptides of the present invention to elicit a functional response in HEK-293 cells that express MC4-R. Confluent HEK-293 cells that express recombinant hMC4-R were detached from culture plates by incubation in enzyme-free cell dissociation buffer. Dispersed cells were suspended in Earle's Balanced Salt Solution containing 10 mM HEPES (pH 7.5), 1 mM MgCl2, 1 mM glutamine, 0.5% albumin and 0.3 mM 3-isobutyl-1-methyl-xanthine (IBMX), a phosphodiesterase inhibitor. […] Cells were exposed for 15 minutes at 37° C. to peptides of the present invention dissolved in DMSO (final DMSO concentration of 1%) at a concentration range of 0.05-5000 nM in a total assay volume of 200 μL. […] Data analysis was performed by nonlinear regression analysis with Graph-Pad Prism® software. The maximum efficacies of the test peptides of the present invention were compared to that achieved by the reference melanocortin agonist NDP-αMSH.

[3] = Induction of penile erection in male rats; type: in vivo, rat; details: for induction of penile erection: male Sprague-Dawley rats, 60 minute observation, No. 154 as trifluoracetic acid salt, No. 155 as acetate salt
From the text: Each dose group contained six or seven animals, with video observation for sixty minutes following administration.

hMC4-R [4] = target: T1, hMC4-R; test: Competitive binding assay using Eu-NDP-α-MSH; details: Eu-NDP-α-MSH (values marked *); averaged; read-out: MC4-R Ki
Description: Alternatively, a competitive inhibition binding assay was performed employing Eu-NDP-α-MSH (PerkinElmer Life Sciences catalog No. AD0225) with determination by time-resolved fluorometry (TRF) of the lanthanide chelate. […] After incubation for 90 minutes at 37° C., the reaction was stopped by filtration over AcroWell 96-well filter plates (Pall Life Sciences). The filter plates were washed 4 times with 200 μL of ice-cold phosphate-buffered saline. DELFIA Enhancement solution (PerkinElmer Life Sciences) was added to each well. […] Each assay was conducted in duplicate and mean values were utilized. Ki values were determined by curve-fitting with Graph-Pad Prism® software using a one-site fixed-slope competition binding model.

hMC4-R [5] = target: T1, hMC4-R; test: Competitive inhibition binding assay using [I125]-NDP-α-MSH; details: [I125]-NDP-α-MSH (unmarked values); averaged; read-out: MC4-R Ki
Description: A competitive inhibition binding assay is performed using membrane homogenates prepared from HEK-293 cells that express recombinant hMC4-R, hMC3-R, or hMC5-R, and from B-16 mouse melanoma cells (containing endogenous MC1-R). In some instances, HEK-293 cells that express recombinant hMC1-R were employed. In the examples that follow, all MC3-R, MC4-R and MC5-R values are for human recombinant receptors. […] Membrane homogenates were incubated with 0.2 nM (for hMC4-R) 0.4 nM (for MC3-R and MC5-R) or 0.1 nM (for mouse B16 MC1-R or hMC1-R) [I^125]-NDP-α-MSH (Perkin Elmer) and increasing concentrations of test peptides of the present invention in buffer containing 25 mM HEPES buffer (pH 7.5) with 100 mM NaCl, 2 mM CaCl2, 2 mM MgCl2, 0.3 mM 1,10-phenanthroline, and 0.2% bovine serum albumin. After incubation for 60 minutes at 37° C., the assay mixture was filtered and the membranes washed three times with ice-cold buffer. Filters were dried and counted in a gamma counter for bound radioactivity. […] Maximal specific binding (100%) was defined as the difference in radioactivity (cpm) bound to cell membranes in the absence and presence of 1 μM NDP-α-MSH. […] Each assay was conducted in triplicate and the actual mean values are described, with results less than 0% reported as 0%. Ki values for test peptides of the present invention were determined using Graph-Pad Prism® curve-fitting software.

[6] = 1 mg/kg, 0-2, 0-4 and 0-20 hour periods

For `CC(=O)N[C@@H](CCCNC(=N)N)C(=O)N[C@H]1CC(=O)NCCCC[C@@H](C(N)=O)NC(=O)[C@H](Cc2c[nH]c3ccccc23)NC(=O)[C@H](CCCNC(=N)N)NC(=O)[C@@H](Cc2ccccc2)NC(=O)[C@H](C(C)C)NC1=O` [Peptide No. 16, Ac-Arg-cyclo(Asp-Val-D-Phe-Arg-Trp-Lys)-NH2], the “effect on food intake and rate of change in body weight” value [1] was “reduce food intake and decrease the rate of change in body weight”, the “decrease in food consumption compared to control” value (from here on “decrease in food consumption”) ([1]; 0.3 mg/kg, 0-2 and 0-4 hour periods) was “statistically significant” and the “decrease in food consumption” value [1, 6] was “statistically significant”. For the same compound, the “functional classification at MC4-R (agonist / partial agonist)” value (hMC4-R [2]) was “partial agonist”.
In the case of `CC(=O)N[C@@H](CCCNC(=N)N)C(=O)N[C@H]1CC(=O)NCCCC[C@@H](C(N)=O)NC(=O)[C@H](Cc2c[nH]c3ccccc23)NC(=O)[C@H](CCCNC(=N)N)NC(=O)[C@@H](Cc2ccccc2)NC(=O)[C@H](CCC(N)=O)NC1=O` [Peptide No. 32, Ac-Arg-cyclo(Asp-Gln-D-Phe-Arg-Trp-Lys)-NH2], the observed spontaneous erections ([3]; rat, subcutaneous, doses of 1, 3 or 10 mg/kg) is reported as “increase in observed spontaneous erections” and the “functional classification at MC4-R (agonist / partial agonist)” value (hMC4-R [2]) is reported as “agonist”.
Compound `CC(=O)N[C@@H](CCCNC(=N)N)C(=O)N[C@H]1CC(=O)NCCCC[C@@H](C(N)=O)NC(=O)[C@H](Cc2c[nH]c3ccccc23)NC(=O)[C@H](CCCNC(=N)N)NC(=O)[C@@H](Cc2ccccc2)NC(=O)[C@H](CCNC(=O)CN)NC1=O` [compound 94, Ac-Arg-cyclo(Asp-Dab(Glycly)-D-Phe-Arg-Trp-Lys)-NH2] has a Ki (hMC4-R [4]) of 0.11 µM.
With `CC(=O)N[C@@H](CCCNC(=N)N)C(=O)N[C@H]1CCCC(=O)NCC[C@@H](C(N)=O)NC(=O)[C@H](Cc2c[nH]c3ccccc23)NC(=O)[C@H](CCCNC(=N)N)NC(=O)[C@@H](Cc2ccccc2)NC(=O)[C@H](Cc2c[nH]cn2)NC1=O` [compound 126, Ac-Arg-cyclo(hGlu-His-D-Phe-Arg-Trp-Dab)-NH2] the “functional classification at MC4-R (agonist / partial agonist)” value (hMC4-R [2]) was “agonist”.
`CC(=O)N[C@H](CCCNC(=N)N)C(=O)N[C@H]1CCCNC(=O)CC[C@@H](C(N)=O)NC(=O)[C@H](Cc2c[nH]c3ccccc23)NC(=O)[C@H](CCCNC(=N)N)NC(=O)[C@@H](Cc2ccccc2)NC(=O)[C@H](Cc2c[nH]cn2)NC1=O` [compound 98, Ac-D-Arg-cyclo(Orn-His-D-Phe-Arg-Trp-Glu)-NH2] showed a Ki (hMC4-R [4]) of 0.004 µM.
In the case of `CC(=O)N[C@@H](CCCNC(=N)N)C(=O)N[C@H]1CCNC(=O)CCC[C@@H](C(N)=O)NC(=O)[C@H](Cc2c[nH]c3ccccc23)NC(=O)[C@H](CCCNC(=N)N)NC(=O)[C@@H](Cc2ccccc2)NC(=O)[C@H](CCN)NC1=O` [compound 129, Ac-Arg-cyclo(Dab-Dab-D-Phe-Arg-Trp-hGlu)-NH2], the “functional classification at MC4-R (agonist / partial agonist)” value (hMC4-R [2]) is reported as “agonist”.
In the case of `CC(=O)N[C@@H](CCCNC(=N)N)C(=O)N[C@H]1CCCCNC(=O)C[C@@H](C(N)=O)NC(=O)[C@H](Cc2c[nH]c3ccccc23)NC(=O)[C@H](CCCNC(=N)N)NC(=O)[C@@H](Cc2ccccc2)NC(=O)[C@H](CC(N)=O)NC1=O` [compound 155, Ac-Arg-cyclo(Lys-Asn-D-Phe-Arg-Trp-Asp)-NH2] (HELM PEPTIDE1{[ac].R.K.N.[dF].R.W.D.[am]}$PEPTIDE1,PEPTIDE1,3:R3-8:R3$$$V2.0), the “induction of penile erection” value ([3]; subcutaneous) is reported as “robustly induce a penile erection”.
With `CC(=O)N[C@@H](CCCNC(=N)N)C(=O)N[C@H]1CCCC(=O)NCC[C@@H](C(N)=O)NC(=O)[C@H](Cc2c[nH]c3ccccc23)NC(=O)[C@H](CCCNC(=N)N)NC(=O)[C@@H](Cc2ccccc2)NC(=O)[C@H](CCN)NC1=O` [compound 127, Ac-Arg-cyclo(hGlu-Dab-D-Phe-Arg-Trp-Dab)-NH] the “functional classification at MC4-R (agonist / partial agonist)” value (hMC4-R [2]) was “agonist”.
For `CC(=O)N[C@@H](CCCNC(=N)N)C(=O)N[C@H]1CCNC(=O)CCC[C@@H](C(N)=O)NC(=O)[C@H](Cc2c[nH]c3ccccc23)NC(=O)[C@H](CCCNC(=N)N)NC(=O)[C@@H](Cc2ccccc2)NC(=O)[C@H](Cc2c[nH]cn2)NC1=O` [compound 128, Ac-Arg-cyclo(Dab-His-D-Phe-Arg-Trp-hGlu)-NH2], the “functional classification at MC4-R (agonist / partial agonist)” value (hMC4-R [2]) was “agonist”.
`CC(=O)N[C@@H](CCCNC(=N)N)C(=O)N[C@H]1CCNC(=O)CCC[C@@H](C(N)=O)NC(=O)[C@H](Cc2c[nH]c3ccccc23)NC(=O)[C@H](CCCNC(=N)N)NC(=O)[C@@H](Cc2ccccc2)NC(=O)[C@H](CCN)NC1=O` [compound 136, Ac-Arg-cyclo(Dab-Dab-D-Phe-Arg-Trp-hGlu)-OH] gave a Ki (hMC4-R [5]) of 0.035 µM.
For `CC(=O)N[C@@H](CCCNC(=N)N)C(=O)N[C@H]1CCCNC(=O)CC[C@@H](C(N)=O)NC(=O)[C@H](Cc2c[nH]c3ccccc23)NC(=O)[C@H](CCCNC(=N)N)NC(=O)[C@@H](Cc2ccccc2)NC(=O)[C@H](CC(N)=O)NC1=O` [compound 154, Ac-Arg-cyclo(Orn-Asn-D-Phe-Arg-Trp-Glu)-NH2], the “induction of penile erection” value ([3]; subcutaneous) was “robustly induce a penile erection”.
With `CC(=O)N[C@@H](CCCNC(=N)N)C(=O)N[C@H]1CC(=O)NCCCC[C@@H](C(N)=O)NC(=O)[C@H](Cc2c[nH]c3ccccc23)NC(=O)[C@H](CCCNC(=N)N)NC(=O)[C@@H](Cc2ccccc2)NC(=O)[C@H](Cc2c[nH]cn2)NC1=O` [Peptide No. 1, Ac-Arg-cyclo(Asp-His-D-Phe-Arg-Trp-Lys)-NH2] the “effect on food intake and rate of change in body weight” value [1] was “reduce food intake and decrease the rate of change in body weight”, the “decrease in food consumption” value ([1]; 0.3 mg/kg, 0-2, 0-4 and 0-20 hour periods) was “statistically significant” and the “decrease in food consumption” value [1, 6] was “statistically significant”. The “observed spontaneous erections compared to vehicle” value ([3]; rat, IV, doses of 0.3 or 1 mg/kg) was “statistically significant increase” and the “functional classification at MC4-R (agonist / partial agonist)” value (hMC4-R [2]) was “agonist”.
Compound `CC(=O)N[C@@H](CCCNC(=N)N)C(=O)N[C@H]1CC(=O)NCCCC[C@@H](C(N)=O)NC(=O)[C@H](Cc2c[nH]c3ccccc23)NC(=O)[C@H](CCCNC(=N)N)NC(=O)[C@@H](Cc2ccccc2)NC(=O)[C@H](CCN)NC1=O` [compound 141, Ac-Cit-cyclo(Asp-Dab-D-Phe-Arg-Trp-Lys)-NH2] has a Ki (hMC4-R [5]) of 0.009 µM.
